Experimental data reported in patent US4359458A, “O-β. -D (and O-α.. -D) Multigalactopyranosyl, xylopyranosyl and glucopyranosyl sulfate salts” (American Cyanamid Company, priority 1981, dated 1982).
Where a name gives a salt, the structure may show the parent alone. Read-outs that look alike come from different tables or passages of the source.

Key:
complement activity = experiment: Guinea Pig Intraperitoneal Test (GPIP); format: in vivo; conditions: Cavia porcellus, ip, 200 mg/kg i.p.
Description: (§1) An active inhibitor protects C2 from C1 and C4; (ii) Test Code 035 (C3-C9 inhibitor)--This test determines the ability of the late components of human complement (C3-C9) to lyse EAC 142 in the presence of appropriate dilutions of the test compound. An active inhibitor protects EAC 142 from lysis by human C3-C9; (iii) Test Code 036 (C-Shunt inhibitor)--In this test human erythrocytes rendered fragile are lysed in autologous serum via the shunt pathway activated by cobra venom factor in the presence of appropriate dilutions of the test compound. Inhibition of the shunt pathway results in failure of lysis; (iv) Cap 50 Test--Here, appropriate amounts of the test compound are added to a pool of guinea pig serum in vitro, after which the undiluted serum capillary tube assay of U.S. Pat. No. 3,876,376 is run. The concentration of compound inhibiting 50% is reported; and (v) Guinea Pig Intraperitoneal Test (GPIP)--Guinea pigs weighing about 300 g are dosed intraperitoneally (i.p.) with 200 mg/kg of the test compound dissolved in saline and adjusted to pH 7-8. Approximately 0.4 ml blood samples, taken by orbital sinus puncture 30 minutes and one hour after injections, are collected directly into centrifuge tubes; 5 ml blood samples, taken by decapitation 2 hours after injection are collected directly into beakers. The samples are allowed to clot, centrifuged, and the resultant sera are assayed for complement activity using the capillary complement assay. Percent inhibition is calculated by comparison with simultaneous controls. The results of the GPIP appear in Table I together with results of test code 026, 035, 036 and Cap 50.

activated human C1 = activated human C1 (Homo sapiens, UniProt P09871); experiment: Test Code 026 (C1 inhibitor); format: biochemical; conditions: serial dilution assay, twofold dilutions; higher well number indicates higher activity
Description: as §1

[1] = system: shunt pathway activated by cobra venom factor; experiment: Test Code 036 (C-Shunt inhibitor); format: cell-based, human; conditions: serial dilution assay, twofold dilutions; higher well number indicates higher activity; N = Negative
Description: as §1

complement system = conditions: Br. J. Exp. Pathol. 33: 327 (1952); cited from earlier work
[2] = system: late components of human complement (C3-C9); experiment: Test Code 035 (C3-C9 inhibitor); format: biochemical; conditions: serial dilution assay, twofold dilutions; higher well number indicates higher activity; N = Negative
Description: as §1

[3] = system: hereditary angioneurotic edema; conditions: literature reports; cited from earlier work
[4] = system: total hemolytic complement activity; conditions: both in vitro and in vivo; judged by reduction in total hemolytic complement activity; cited from earlier work

Compound | Cl 026 Wells (activated human C1) [Wells] | C-Shunt Inhibition 036 Wells [1] | C-Late 035 Wells [2] | also measured
O=S(=O)(O)O[C@@H]1[C@@H](OS(=O)(=O)O)[C@@H](O[C@H]2O[C@H](CO[C@@H]3OC[C@@H](OS(=O)(=O)O)[C@H](OS(=O)(=O)O)[C@H]3OS(=O)(=O)O)[C@@H](OS(=O)(=O)O)[C@H](OS(=O)(=O)O)[C@H]2OS(=O)(=O)O)O[C@H](CO[C@@H]2OC[C@@H](OS(=O)(=O)O)[C@H](OS(=O)(=O)O)[C@H]2OS(=O)(=O)O)[C@H]1OS(=O)(=O)O [drawing 14, Xyl 1β,6 glc 1α,1α' glc 1β,6 xyl, dodecakis (H-sulfate), dodecasodium salt] | 11 | 4 Wells | – | inhibition at 200 mg/kg (complement activity; 0.5 h, serum 30 minutes after injection, read-out: In vivo activity (Guinea Pigs) % Inhibition Intraperitoneal, 30 minutes): 57%; inhibition at 200 mg/kg (complement activity; 1 h, serum 60 minutes after injection, read-out: In vivo activity (Guinea Pigs) % Inhibition Intraperitoneal, 60 minutes): 69%; inhibition at 200 mg/kg (complement activity; 2 h, serum 120 minutes after injection, read-out: In vivo activity (Guinea Pigs) % Inhibition Intraperitoneal, 120 minutes): 78%
heparin | – | – | – | anti-complementary effect (complement system): anti-complementary effect
Nc1ccc2cc(S(=O)(=O)O)cc(O)c2c1N=Nc1ccc(NC(=O)Nc2ccc(N=Nc3c(N)ccc4cc(S(=O)(=O)O)cc(O)c34)c(S(=O)(=O)O)c2)cc1S(=O)(=O)O [chlorazol fast pink, 3,3'-ureylenebis [6-(2-amino-8-hydroxy-6-sulfo-1-naphthylazo)benzenesulfonic acid], tetrasodium salt] | – | – | – | anti-complementary effect (complement system): anti-complementary effect
O=S(=O)(O)OC[C@H]1O[C@@H](OC[C@H]2O[C@H](O[C@H]3O[C@H](CO[C@@H]4O[C@H](COS(=O)(=O)O)[C@@H](O[C@H]5O[C@H](COS(=O)(=O)O)[C@@H](O[C@H]6O[C@H](COS(=O)(=O)O)[C@@H](OS(=O)(=O)O)[C@H](OS(=O)(=O)O)[C@H]6OS(=O)(=O)O)[C@H](OS(=O)(=O)O)[C@H]5OS(=O)(=O)O)[C@H](OS(=O)(=O)O)[C@H]4OS(=O)(=O)O)[C@@H](OS(=O)(=O)O)[C@H](OS(=O)(=O)O)[C@H]3OS(=O)(=O)O)[C@H](OS(=O)(=O)O)[C@@H](OS(=O)(=O)O)[C@@H]2OS(=O)(=O)O)[C@H](OS(=O)(=O)O)[C@@H](OS(=O)(=O)O)[C@@H]1O[C@H]1O[C@H](COS(=O)(=O)O)[C@@H](O[C@H]2O[C@H](COS(=O)(=O)O)[C@@H](OS(=O)(=O)O)[C@H](OS(=O)(=O)O)[C@H]2OS(=O)(=O)O)[C@H](OS(=O)(=O)O)[C@H]1OS(=O)(=O)O [drawing 17, Glc 1α,4 glc 1α,4 glc 1β,6 glc 1α,1α' glc 1β,6 glc 1α,4 glc 1α,4 glc, hexacosakis (H-sulfate), hexacosasalt with trimethylamine] | 9 | 6 Wells | 1 Wells | –
NC[C@H]1CC[C@H](C(=O)O)CC1 [tranexamic acid] | – | – | – | treatment of hereditary angioneurotic edema [3]: used with success
pentosanpolysulfoester | – | – | – | anticomplementary activity on human serum [4]: anticomplementary activity
NCCCCCC(=O)O [epsilon-aminocaproic acid] | – | – | – | treatment of hereditary angioneurotic edema [3]: used with success
O=S(=O)(O)OC[C@H]1O[C@@H](OC[C@H]2O[C@H](O[C@H]3O[C@H](CO[C@@H]4O[C@H](COS(=O)(=O)O)[C@@H](O[C@H]5O[C@H](COS(=O)(=O)O)[C@@H](OS(=O)(=O)O)[C@H](OS(=O)(=O)O)[C@H]5OS(=O)(=O)O)[C@H](OS(=O)(=O)O)[C@H]4OS(=O)(=O)O)[C@@H](OS(=O)(=O)O)[C@H](OS(=O)(=O)O)[C@H]3OS(=O)(=O)O)[C@H](OS(=O)(=O)O)[C@@H](OS(=O)(=O)O)[C@@H]2OS(=O)(=O)O)[C@H](OS(=O)(=O)O)[C@@H](OS(=O)(=O)O)[C@@H]1O[C@H]1O[C@H](COS(=O)(=O)O)[C@@H](OS(=O)(=O)O)[C@H](OS(=O)(=O)O)[C@H]1OS(=O)(=O)O [drawing 15, Glc 1α,4 glc 1β,6 glc 1α,1α' glc 1β,6 glc 1α,4 glc, eicosakis (H-sulfate), eicosasalt with trimethylamine] | 5 | N | N | –
O=S(=O)(O)OC[C@H]1O[C@@H](OC[C@H]2O[C@H](O[C@H]3O[C@H](CO[C@@H]4O[C@H](COS(=O)(=O)O)[C@@H](O[C@H]5O[C@H](COS(=O)(=O)O)[C@@H](O[C@H]6O[C@H](COS(=O)(=O)O)[C@@H](O[C@H]7O[C@H](COS(=O)(=O)O)[C@@H](O[C@H]8O[C@H](COS(=O)(=O)O)[C@@H](O[C@H]9O[C@H](COS(=O)(=O)O)[C@@H](O[C@H]%10O[C@H](COS(=O)(=O)O)[C@@H](OS(=O)(=O)O)[C@H](OS(=O)(=O)O)[C@H]%10OS(=O)(=O)O)[C@H](OS(=O)(=O)O)[C@H]9OS(=O)(=O)O)[C@H](OS(=O)(=O)O)[C@H]8OS(=O)(=O)O)[C@H](OS(=O)(=O)O)[C@H]7OS(=O)(=O)O)[C@H](OS(=O)(=O)O)[C@H]6OS(=O)(=O)O)[C@H](OS(=O)(=O)O)[C@H]5OS(=O)(=O)O)[C@H](OS(=O)(=O)O)[C@H]4OS(=O)(=O)O)[C@@H](OS(=O)(=O)O)[C@H](OS(=O)(=O)O)[C@H]3OS(=O)(=O)O)[C@H](OS(=O)(=O)O)[C@@H](OS(=O)(=O)O)[C@@H]2OS(=O)(=O)O)[C@H](OS(=O)(=O)O)[C@@H](OS(=O)(=O)O)[C@@H]1O[C@H]1O[C@H](COS(=O)(=O)O)[C@@H](O[C@H]2O[C@H](COS(=O)(=O)O)[C@@H](O[C@H]3O[C@H](COS(=O)(=O)O)[C@@H](O[C@H]4O[C@H](COS(=O)(=O)O)[C@@H](O[C@H]5O[C@H](COS(=O)(=O)O)[C@@H](O[C@H]6O[C@H](COS(=O)(=O)O)[C@@H](OS(=O)(=O)O)[C@H](OS(=O)(=O)O)[C@H]6OS(=O)(=O)O)[C@H](OS(=O)(=O)O)[C@H]5OS(=O)(=O)O)[C@H](OS(=O)(=O)O)[C@H]4OS(=O)(=O)O)[C@H](OS(=O)(=O)O)[C@H]3OS(=O)(=O)O)[C@H](OS(=O)(=O)O)[C@H]2OS(=O)(=O)O)[C@H](OS(=O)(=O)O)[C@H]1OS(=O)(=O)O [drawing 21, Glc 1α,4 (glc 1α,4)5 glc 1β,6 glc 1α,1α'glc 1β,6 glc (glc 1α,4)5 1α,4 glc, pentacontakis (H-sulfate), pentacontasalt with trimethylamine] | 10 | 5 Wells | N | –
